The source of these data is US20130097726A1, “METHODS AND COMPOSITIONS FOR WEED CONTROL” (priority 2011, published 2013).

SMILES strings stand for the structures.

The test has as its system Glyphosate-sensitive Palmer amaranth (A. palmeri R-22) plants. Briefly: Topical ssDNA HPPD oligonucleotide mixture with or without mesotrione or atrazine: plant height / growth reduction. The format is in vivo, Amaranthus palmeri. The conditions noted are these: twelve days after treatment. As for the experimental part: Glyphosate-sensitive Palmer amaranth (A. palmeri R-22) plants were grown in the greenhouse (30/20 C day/night T; 14 hour photoperiod) in 4 inch square pots containing Sun Gro® Redi-Earth and 3.5 kg/cubic meter Osmocote® 14-14-14 fertilizer. Palmer amaranth plants at 5 to 10 cm in height were pre-treated with a mixture of eight 8 short (21-22mer) single-strand antisense oligo DNA polynucleotides (ssDNAas) targeting HPPD shown in Table 2 as HPPD_OLIGO1-8 (SEQ ID NO: 1083-1090, respectively) at two concentrations, 16 nmol and 80 nmol, formulated in 10 millimolar sodium phosphate buffer (pH 6.8) containing 2% ammonium sulfate and 0.5% Silwet L-77. Plants were treated manually by pipetting 10 μL of polynucleotide solution on four fully expanded mature leaves, for a total of 40 microliters of solution per plant. Twenty-four and forty-eight hours later, the plants were treated with mesotrione (Callisto®, 4 lb ai per gallon; HPPD inhibitor) at 13 g ai/ha, or atrazine (Aatrex® Nine-0®, 90% w/w ai; Photosystem II inhibitor) at 170 g ai/ha using a track-sprayer equipped with a 9501E nozzle and calibrated to deliver 93 liters of solution per hectare. […] Plant height was determined just before ssDNA treatment and at intervals upto twelve days after herbicide treatments to determine effect of the oligonucleotide and herbicide treatments.

Take `CS(=O)(=O)c1ccc(C(=O)C2C(=O)CCCC2=O)c([N+](=O)[O-])c1` [mesotrione]: where the note is “mesotrione alone 13 g ai/ha”, the “control (growth reduction)” value was 48%.

On to `CCNc1nc(Cl)nc(NC(C)C)n1` [atrazine], for which the “control (growth reduction)” value (atrazine alone 170 g ai/ha) is reported as 29%.
